# Patent publication US20260028326A1, “COMPOUND BASED ON ISOINDOLINE-SUBSTITUTED GLUTARIMIDE BACKBONE AND USE THEREOF” (GLUETACS THERAPEUTICS (SHANGHAI) CO., LTD., priority 2022, published 2026)
# Columns and labels:
# GSPT1 protein = GSPT1 protein (Homo sapiens (Human), UniProt P15170+Q96SW2); experiment: Western-blot assay of substrate protein degradation in hPBMC, GSPT1; assay type: cell-based; settings: for residual substrate protein level, GSPT1: hPBMC cells, compound 500 nM, 24 hours, Western blot
# Method: (§1) After treating the cells with the compounds for 24 hours, the cells were collected and lysed using RIPA protein lysate containing phosphatase inhibitors. The lysate was then placed on ice for 30-60 minutes and centrifuged. The supernatant was aspirated as the extracted total cell protein. The protein concentration of the supernatant was determined using the conventional BCA (Bicinchoninic Acid) assay. The supernatant was then mixed with 4×SDS sample loading buffer, denatured at 95° C. for 5 minutes, and then subjected to SDS-PAGE electrophoresis on a polyacrylamide gel, followed by transfer to a nitrocellulose membrane (NC membrane). The membrane was blocked with blocking buffer at room temperature for 1-2 hours, and then antibody incubation and detection were carried out according to the antibody instructions provided by Cell Signaling Technology.
# (§2) Half-Maximal Degradation Concentration value (the drug concentration required for degrading proteins by 50%, abbreviated as DC50) reads method: comparing the gray values of the Western blotting bands for the drug treatment with the gray values of the Western blotting band for the DMSO control, and reading the drug concentration range corresponding to the gray value of the Western blotting bands for the drug treatment which is equal to half of the gray value of the Western blotting band for the DMSO control.
# (§3) DC50 value could also be calculated as follows: using software ImageJ to quantify the gray values of the Western blotting bands for the drug treatment, fitting the relationship curve between drug concentrations and gray values, and from the fitted curve, calculating the drug concentration corresponding to half of the gray value of the Western blotting band for the DMSO control.
# IKZF1 protein = IKZF1 protein (Homo sapiens (Human), UniProt Q13422+Q96SW2); experiment: Western-blot assay of substrate protein degradation in hPBMC, IKZF1; assay type: cell-based; settings: for residual substrate protein level, IKZF1: hPBMC cells, compound 500 nM, 24 hours, Western blot
# Method: as §1, §2, §3
# IKZF3 protein = IKZF3 protein (Homo sapiens (Human), UniProt Q96SW2+Q9UKT9); experiment: Western-blot assay of substrate protein degradation in hPBMC, IKZF3; assay type: cell-based; settings: for residual substrate protein level, IKZF3: hPBMC cells, compound 500 nM, 24 hours, Western blot
# Method: as §1, §2, §3
# [1] = target: human Cereblon WT GST-tagged protein (Homo sapiens (Human), UniProt Q96SW2); experiment: CRBN-binding affinity, HTRF (CEREBLON BINDING kit)
# Outline: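 HTRF competition readout: compounds compete with a thalidomide-Re conjugate for GST-tagged wild-type human CRBN detected via Eu-labelled anti-GST antibody. Inhibition rate derived relative to protein-free blank wells.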
# [2] = hPBMC, 24 h, serially diluted 0.03-1000 nM
# IKZF3 protein, sequence (Q9UKT9 whole entry): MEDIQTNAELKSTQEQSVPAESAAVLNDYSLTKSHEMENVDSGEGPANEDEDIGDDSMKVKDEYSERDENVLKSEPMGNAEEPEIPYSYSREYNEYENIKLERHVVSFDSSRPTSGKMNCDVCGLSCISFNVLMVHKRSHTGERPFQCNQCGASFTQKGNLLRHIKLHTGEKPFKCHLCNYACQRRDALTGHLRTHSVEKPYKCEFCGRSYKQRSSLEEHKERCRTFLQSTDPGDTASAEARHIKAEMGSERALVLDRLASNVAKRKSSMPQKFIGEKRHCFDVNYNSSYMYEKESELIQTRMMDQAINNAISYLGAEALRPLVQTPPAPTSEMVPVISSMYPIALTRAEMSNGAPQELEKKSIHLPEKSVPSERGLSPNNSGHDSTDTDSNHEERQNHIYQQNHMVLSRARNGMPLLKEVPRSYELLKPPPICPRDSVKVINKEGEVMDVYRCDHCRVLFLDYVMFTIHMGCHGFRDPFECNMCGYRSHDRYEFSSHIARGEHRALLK
# IKZF3 protein, sequence (Q96SW2 whole entry): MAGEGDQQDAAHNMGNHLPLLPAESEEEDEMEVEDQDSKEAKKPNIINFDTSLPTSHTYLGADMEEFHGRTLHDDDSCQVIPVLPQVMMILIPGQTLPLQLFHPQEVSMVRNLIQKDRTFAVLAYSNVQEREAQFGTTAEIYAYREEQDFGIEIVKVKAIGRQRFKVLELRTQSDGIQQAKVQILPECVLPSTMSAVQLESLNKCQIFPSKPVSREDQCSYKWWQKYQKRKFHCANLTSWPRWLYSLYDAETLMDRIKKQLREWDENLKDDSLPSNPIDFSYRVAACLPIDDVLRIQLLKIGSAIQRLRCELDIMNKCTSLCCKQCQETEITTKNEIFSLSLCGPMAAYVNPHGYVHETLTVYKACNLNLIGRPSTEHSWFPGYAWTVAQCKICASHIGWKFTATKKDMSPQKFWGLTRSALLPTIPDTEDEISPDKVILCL
# IKZF3 protein, sequence (Q16531 whole entry partner): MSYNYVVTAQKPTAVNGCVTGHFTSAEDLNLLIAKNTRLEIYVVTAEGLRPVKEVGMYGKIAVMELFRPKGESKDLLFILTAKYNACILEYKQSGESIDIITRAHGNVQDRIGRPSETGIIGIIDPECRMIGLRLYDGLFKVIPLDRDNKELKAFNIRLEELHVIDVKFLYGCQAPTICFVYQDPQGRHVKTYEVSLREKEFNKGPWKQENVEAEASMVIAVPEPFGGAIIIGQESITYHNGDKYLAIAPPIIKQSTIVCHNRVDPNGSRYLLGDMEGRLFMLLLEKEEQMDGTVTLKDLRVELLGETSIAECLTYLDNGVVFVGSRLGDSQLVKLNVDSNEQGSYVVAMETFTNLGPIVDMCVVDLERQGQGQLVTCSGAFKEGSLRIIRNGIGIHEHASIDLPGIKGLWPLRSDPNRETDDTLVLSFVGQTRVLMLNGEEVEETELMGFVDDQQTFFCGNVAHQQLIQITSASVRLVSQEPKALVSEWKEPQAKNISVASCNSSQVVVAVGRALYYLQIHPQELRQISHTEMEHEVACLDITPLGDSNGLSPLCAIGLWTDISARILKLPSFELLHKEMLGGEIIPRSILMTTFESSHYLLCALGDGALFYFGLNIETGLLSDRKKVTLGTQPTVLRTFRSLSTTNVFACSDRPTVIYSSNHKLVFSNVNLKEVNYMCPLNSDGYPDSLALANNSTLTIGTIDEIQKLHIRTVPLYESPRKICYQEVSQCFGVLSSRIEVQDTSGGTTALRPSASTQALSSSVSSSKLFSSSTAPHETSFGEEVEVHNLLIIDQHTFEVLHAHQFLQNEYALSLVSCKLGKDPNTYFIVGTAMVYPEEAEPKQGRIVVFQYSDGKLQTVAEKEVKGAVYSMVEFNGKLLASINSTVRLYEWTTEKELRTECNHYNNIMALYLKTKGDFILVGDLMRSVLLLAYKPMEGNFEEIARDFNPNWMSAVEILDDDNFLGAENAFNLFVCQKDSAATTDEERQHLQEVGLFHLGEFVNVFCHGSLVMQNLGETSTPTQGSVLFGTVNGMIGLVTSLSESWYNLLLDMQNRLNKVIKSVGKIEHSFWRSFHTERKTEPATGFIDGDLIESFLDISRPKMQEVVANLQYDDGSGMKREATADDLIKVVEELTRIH
# IKZF1 protein, sequence (Q13422 whole entry): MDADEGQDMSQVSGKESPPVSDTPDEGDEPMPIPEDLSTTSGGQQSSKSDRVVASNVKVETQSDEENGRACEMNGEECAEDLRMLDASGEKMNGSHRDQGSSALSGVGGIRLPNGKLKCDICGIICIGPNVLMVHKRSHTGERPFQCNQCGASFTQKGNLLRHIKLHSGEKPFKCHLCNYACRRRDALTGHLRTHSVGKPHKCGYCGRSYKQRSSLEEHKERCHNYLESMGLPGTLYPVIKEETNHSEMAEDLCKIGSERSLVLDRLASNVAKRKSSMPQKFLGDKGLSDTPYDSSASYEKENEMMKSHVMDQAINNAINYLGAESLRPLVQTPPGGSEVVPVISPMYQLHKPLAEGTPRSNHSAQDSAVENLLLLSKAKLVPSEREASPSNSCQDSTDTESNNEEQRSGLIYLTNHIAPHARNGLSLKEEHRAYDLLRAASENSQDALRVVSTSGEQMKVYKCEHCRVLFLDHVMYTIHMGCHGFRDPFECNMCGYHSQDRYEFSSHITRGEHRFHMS
# IKZF1 protein, sequence (Q96SW2 whole entry): as the sequence (Q96SW2 whole entry) above
# IKZF1 protein, sequence (Q16531 whole entry partner): as the sequence (Q16531 whole entry partner) above
# GSPT1 protein, sequence (P15170 whole entry): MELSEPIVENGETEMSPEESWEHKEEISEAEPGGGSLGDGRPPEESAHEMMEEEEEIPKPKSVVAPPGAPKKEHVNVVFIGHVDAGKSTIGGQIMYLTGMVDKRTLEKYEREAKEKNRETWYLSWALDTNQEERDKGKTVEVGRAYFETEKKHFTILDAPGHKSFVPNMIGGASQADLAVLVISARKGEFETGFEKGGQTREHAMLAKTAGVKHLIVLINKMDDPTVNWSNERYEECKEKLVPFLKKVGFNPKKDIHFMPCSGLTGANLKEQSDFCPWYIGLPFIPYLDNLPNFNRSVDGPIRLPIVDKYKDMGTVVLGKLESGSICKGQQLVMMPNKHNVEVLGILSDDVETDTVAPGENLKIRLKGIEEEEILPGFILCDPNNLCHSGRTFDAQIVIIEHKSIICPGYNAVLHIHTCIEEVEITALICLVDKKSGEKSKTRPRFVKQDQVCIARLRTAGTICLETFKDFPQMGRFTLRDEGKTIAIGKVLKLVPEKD
# GSPT1 protein, sequence (Q96SW2 whole entry): as the sequence (Q96SW2 whole entry) above
# GSPT1 protein, sequence (Q16531 whole entry partner): as the sequence (Q16531 whole entry partner) above
# human Cereblon WT GST-tagged protein, sequence (Q96SW2 whole entry): as the sequence (Q96SW2 whole entry) above
SMILES,"residual substrate protein level, GSPT1 (GSPT1 protein)","residual substrate protein level, IKZF1 (IKZF1 protein)","residual substrate protein level, IKZF3 (IKZF3 protein)",IC50 [1] [µM],concentration at which significant degradation effects on GSPT1 protein are exhibited (FIG. 1) (GSPT1 protein; [2]),concentration at which significant degradation effects on IKZF1 protein are exhibited (FIG. 1) (IKZF1 protein; [2]),concentration at which significant degradation effects on IKZF3 protein are exhibited (FIG. 1) (IKZF3 protein; [2])
"CC1(C)CCC(CN2CC3CCC2CN3Cc2ccc3c(c2)CN(C2CCC(=O)NC2=O)C3=O)=C(c2ccc(Cl)cc2)C1 (stereo not drawn) [GT-04167, 3-(5-((5-((4′-chloro-5,5-dimethyl-3,4,5,6-tetrahydro-[1,1′-biphenyl]-2-yl)methyl)-2,5-diazabicyclo[2.2.2]octan-2-yl)methyl)-1-oxoisoindolin-2-yl)piperidine-2,6-dione]",B (B represents a residual substrate protein level of >50%),B (B represents a residual substrate protein level of >50%),B (B represents a residual substrate protein level of >50%),0.66,–,–,–
"CC1(C)CCC(CN2CC3CCC2CN3Cc2ccc3c(c2F)CN(C2CCC(=O)NC2=O)C3=O)=C(c2ccc(Cl)cc2)C1 (stereo not drawn) [GT-04168, 3-(5-((5-((4′-chloro-5,5-dimethyl-3,4,5,6-tetrahydro-[1,1′-biphenyl]-2-yl)methyl)-2,5-diazabicyclo[2.2.2]octan-2-yl)methyl)-4-fluoro-1-oxoisoindolin-2-yl)piperidine-2,6-dione]",A (A represents a residual substrate protein level of <50%),B (B represents a residual substrate protein level of >50%),B (B represents a residual substrate protein level of >50%),0.55,–,–,–
"O=C1CCC(N2Cc3cc(CN4CCN(C(=O)C5=C(c6ccc(F)cc6)CCCC5)CC4)c(F)cc3C2=O)C(=O)N1 (stereo not drawn) [GT-05473, 3-(6-fluoro-5-((4-(4′-fluoro-3,4,5,6-tetrahydro-[1,1′-biphenyl]-2-carbonyl)piperazin-1-yl)methyl)-1-oxoisoindolin-2-yl)piperidine-2,6-dione]",A (A represents a residual substrate protein level of <50%),B (B represents a residual substrate protein level of >50%),B (B represents a residual substrate protein level of >50%),1.16,–,–,–
"O=C1CCC(N2Cc3cc(CN4CCN(C(=O)c5ccccc5-c5ccc(F)cc5)CC4)ccc3C2=O)C(=O)N1 (stereo not drawn) [GT-04194, 3-(5-((4-(4′-fluoro-[1,1′-biphenyl]-2-carbonyl)piperazin-1-yl)methyl)-1-oxoisoindolin-2-yl)piperidine-2,6-dione]",A (A represents a residual substrate protein level of <50%),B (B represents a residual substrate protein level of >50%),A (A represents a residual substrate protein level of <50%),1.16,below 30 nM,below 30 nM,below 30 nM
"CC1(C)CCC(CN2CC3(C2)CN(Cc2ccc4c(c2)CN(C2CCC(=O)NC2=O)C4=O)C3)=C(c2ccc(F)cc2)C1 (stereo not drawn) [GT-05670, 3-(5-((6-((4′-fluoro-5,5-dimethyl-3,4,5,6-tetrahydro-[1,1′-biphenyl]-2-yl)methyl)-2,6-diazaspiro[3.3]heptan-2-yl)methyl)-1-oxoisoindolin-2-yl)piperidine-2,6-dione]",A (A represents a residual substrate protein level of <50%),A (A represents a residual substrate protein level of <50%),A (A represents a residual substrate protein level of <50%),0.62,–,–,–
"CC1(C)CCC(C(=O)N2CC(O)(C(O)c3ccc4c(c3)CN(C3CCC(=O)NC3=O)C4=O)C2)=C(c2ccc(F)cc2)C1 (stereo not drawn) [GT-05490, 3-(5-((1-(4′-fluoro-5,5-dimethyl-3,4,5,6-tetrahydro-[1,1′-biphenyl]-2-carbonyl)-3-hydroxyazetidin-3-yl)(hydroxy)methyl)-1-oxoisoindolin-2-yl)piperidine-2,6-dione]",B (B represents a residual substrate protein level of >50%),A (A represents a residual substrate protein level of <50%),B (B represents a residual substrate protein level of >50%),0.58,–,–,–
"CC1(C)CCC(CN2CC3CCC2CN3Cc2ccc3c(c2)CN(C2CCC(=O)NC2=O)C3=O)=C(c2ccc(F)cc2)C1 (stereo not drawn) [GT-05512, 3-(5-((5-((4′-fluoro-5,5-dimethyl-3,4,5,6-tetrahydro-[1,1′-biphenyl]-2-yl)methyl)-2,5-diazabicyclo[2.2.2]octan-2-yl)methyl)-1-oxoisoindolin-2-yl)piperidine-2,6-dione]",A (A represents a residual substrate protein level of <50%),B (B represents a residual substrate protein level of >50%),B (B represents a residual substrate protein level of >50%),0.57,–,–,–
"CC1(C)CCC(CN2CC3CC(C2)N3C(=O)c2ccc3c(c2)CN(C2CCC(=O)NC2=O)C3=O)=C(c2ccc(F)cc2)C1 (stereo not drawn) [GT-05450, 3-(5-(3-((4′-fluoro-5,5-dimethyl-3,4,5,6-tetrahydro-[1,1′-biphenyl]-2-yl)methyl)-3,6-diazabicyclo[3.1.1]heptane-6-carbonyl)-1-oxoisoindolin-2-yl)piperidine-2,6-dione]",A (A represents a residual substrate protein level of <50%),B (B represents a residual substrate protein level of >50%),B (B represents a residual substrate protein level of >50%),0.89,–,–,–
"CC1(C)CCC(C(=O)N2CC(O)(C(O)c3ccc4c(c3)CN(C3CCC(=O)NC3=O)C4=O)C2)=C(c2ccc(Cl)cc2)C1 (stereo not drawn) [GT-05426, 3-(5-((1-(4′-chloro-5,5-dimethyl-3,4,5,6-tetrahydro-[1,1′-biphenyl]-2-carbonyl)-3-hydroxyazetidin-3-yl)(hydroxy)methyl)-1-oxoisoindolin-2-yl)piperidine-2,6-dione]",A (A represents a residual substrate protein level of <50%),B (B represents a residual substrate protein level of >50%),A (A represents a residual substrate protein level of <50%),0.62,–,–,–
"O=C1CCC(N2Cc3cc(CN4C5CC4CN(C(=O)c4ccccc4-c4ccc(Cl)cc4)C5)ccc3C2=O)C(=O)N1 (stereo not drawn) [GT-05665, 3-(5-((3-(4′-chloro-[1,1′-biphenyl]-2-carbonyl)-3,6-diazabicyclo[3.1.1]heptan-6-yl)methyl)-1-oxoisoindolin-2-yl)piperidine-2,6-dione]",A (A represents a residual substrate protein level of <50%),B (B represents a residual substrate protein level of >50%),B (B represents a residual substrate protein level of >50%),0.6,–,–,–
"O=C1CCC(N2Cc3c(ccc(CN4CCN(C(=O)C5=C(c6ccc(F)cc6)CCCC5)CC4)c3F)C2=O)C(=O)N1 (stereo not drawn) [GT-05472, 3-(4-fluoro-5-((4-(4′-fluoro-3,4,5,6-tetrahydro-[1,1′-biphenyl]-2-carbonyl)piperazin-1-yl)methyl)-1-oxoisoindolin-2-yl)piperidine-2,6-dione]",A (A represents a residual substrate protein level of <50%),B (B represents a residual substrate protein level of >50%),B (B represents a residual substrate protein level of >50%),1.12,–,–,–
"O=C1CCC(N2Cc3cc(CN4CCN(CC5=C(c6ccc(F)cc6)CCCC5)CC4)ccc3C2=O)C(=O)N1 (stereo not drawn) [GT-04193, 3-(5-((4-((4′-fluoro-3,4,5,6-tetrahydro-[1,1′-biphenyl]-2-yl)methyl)piperazin-1-yl)methyl)-1-oxoisoindolin-2-yl)piperidine-2,6-dione]",A (A represents a residual substrate protein level of <50%),A (A represents a residual substrate protein level of <50%),A (A represents a residual substrate protein level of <50%),0.46,–,–,–
"CC1(C)CCC(CN2CC3CC2CN3Cc2ccc3c(c2)C(=O)N(C2CCC(=O)NC2=O)C3=O)=C(c2ccc(Cl)cc2)C1 (stereo not drawn) [GT-05533, 5-((5-((4′-chloro-5,5-dimethyl-3,4,5,6-tetrahydro-[1,1′-biphenyl]-2-yl)methyl)-2,5-diazabicyclo[2.2.1]heptan-2-yl)methyl)-2-(2,6-dioxopiperidin-3-yl)isoindoline-1,3-dione]",A (A represents a residual substrate protein level of <50%),A (A represents a residual substrate protein level of <50%),A (A represents a residual substrate protein level of <50%),–,–,–,–
